Where two headings read alike, the source gives them in different places.

The target of one series is pfDHODH (Plasmodium falciparum (isolate 3D7), UniProt Q08210). Nature of the series: DHODH chromogen reduction (DCIP) assay, pfDHODH. The conditions noted are these: for IC50: read-out: pfDHODH IC50. The series is classed as biochemical, P. falciparum.
The next series is described as follows: Log D measurement. Format: physicochemical. An excerpt: Many standard techniques are known in the art to establish the distribution coefficient of a compound between two particular solvents. The following description is one such technique that could be used to determine the distribution coefficient: The shake-flask method, which consists of dissolving some of the compound in a volume of octanol and water, then physically shaking the mixture and allowing the two solvents to fully separate. The concentration of the compound in each solvent is then measured. The most common method of measuring the distribution of the solute is by HPLC or UV/Vis spectroscopic techniques.

Another series concerns the target hsDHODH (Homo sapiens (Human), UniProt Q02127). Kind of series: DCIP assay, hsDHODH. Format: biochemical.
The test system of the next series is P. falciparum Dd2. Nature of the series: Inhibition of in vitro P. falciparum culture, [3H]-hypoxanthine uptake, Dd2. Format: cell-based. Particulars: for EC50: read-out: Dd2 EC50; for IC50: read-out: Dd2 IC50. The method in brief: (§1)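 Parasite growth inhibition measured as relative reduction of [3H]-hypoxanthine uptake in in vitro cultures. Values from non-linear regression fit, using relative growth velocity in place of product-formation rate.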

The next series concerns P. falciparum 3D7. Kind of series: Inhibition of in vitro P. falciparum culture, [3H]-hypoxanthine uptake, 3D7. Format: cell-based. The conditions noted are these: for EC50: read-out: 3D7 EC50; for IC50: read-out: 3D7 IC50. A digest of the protocol: as §1
The nature of series [1]: Normal Human Dermal Fibroblast Toxicity Screen. Format: cell-based. Particulars: human, normal human dermal fibroblasts; four days exposure, Alamar Blue; read-out: Dermal Fibroblast LC50. Here is the method:
The Normal Human Dermal Fibroblast Toxicity Screen Protocol is designed to determine whether compound mixtures, breakouts or single compounds are toxic to normal human dermal fibroblasts. The screen involves plating the dermal fibroblasts and then exposing them to the compounds for four days, then cell viability is measured using Alamar Blue reagent.
Harvested Dermal Fibroblast cells were diluted in Growth Media to 0.25 to 0.3×10^5 cells/mL. […] NOTE: One plate, the T=0 plate required that 20-30 wells be seeded and all the other plates had 96 wells seeded. Plates were incubated in 37° C./5% CO2 incubator for 24 hours.
Alamar Blue solution (25 μL/well) was added to the T=0 plate and the plate was agitated. The plate in 37° C./5% CO2 incubator was incubated for 3 hours, agitated the and the fluorescence was measured. 10% Tween 20 stock (10 μL) was added into rows A-D in column 1 (positive control). DMSO (0.5 μL) was added into column 2 (negative control). Compounds were placed into designated wells for desired testing as follows:
Plates were mixed on the shaker, then incubated in 37° C./5% CO2 incubator for 96 hours.
Alamar Blue solution (25 μL/well) was added to the plates containing the compounds, and the plates were agitated. The plates were incubated in 37° C./5% CO2 incubator for 3 hours, agitated and then the fluorescence was measured.

Series [2] is described as follows: Renal Proximal Tubule Epithelial Cell Toxicity Screen. Format: cell-based. Here is the method: The Renal Proximal Tubule Epithelial Cell Toxicity Screen is designed to determine whether compound mixtures, breakouts or single compounds are toxic to normal renal epithelial cells. […] Basically, the screen consists of plating renal epithelial cells, exposing them to the desired compound(s) for 4 days and measuring cell viability using the Alamar Blue reagent.
Harvested Kidney Epithelial cells were diluted in REGM to 1.5×10^4 cells/mL. […] NOTE: One plate, the T=0 plate required that 20-30 wells be seeded, and all the other plates had 96 wells seeded. Plates were incubated in 37° C./5% CO2 incubator for 24 hours.
Alamar Blue solution (25 μL/well) was added to the T=0 plate and mixed. The plate was incubated in 37° C./5% CO2 incubator for 4 hours, mixed and then the fluorescence was measured. 10% Tween 20 stock (10 μL) was added into rows A-D in column 1 (positive control). DMSO (0.5 μL) was added into column 2 (negative control). Compounds were placed into designated wells for desired testing as follows:
Plates were mixed on the shaker, and then incubated in 37° C./5% CO2 incubator for 96 hours. Day 6:
Alamar Blue solution (25 μL/well) was added to the plates containing the compounds and mixed. Plates were incubated in 37° C./5% CO2 incubator for 4 hours, mixed and the fluorescence was measured.

Setting [3] is: Table 3, DCIP assay, 20 nM pfDHODH.
[4] abbreviates: Table 2b, read-out: Hu (human DHODH) IC50.
Where [5] appears, read: Table 3, DCIP assay, 20 nM hsDHODH, read-out: hsDHODH IC50.
[6] abbreviates: Table 3, [3H]-hypoxanthine uptake.
[7] abbreviates: Plasmodium falciparum, DD2, Table 2b.
[8] abbreviates: Plasmodium falciparum, DD2, Table 3, [3H]-hypoxanthine uptake.
Setting [9] is: Plasmodium falciparum, 3D7, Table 2b.
Where [10] appears, read: Plasmodium falciparum, 3D7, Table 3, [3H]-hypoxanthine uptake.

Sequence of hsDHODH (Q02127 29-395 limits assumed): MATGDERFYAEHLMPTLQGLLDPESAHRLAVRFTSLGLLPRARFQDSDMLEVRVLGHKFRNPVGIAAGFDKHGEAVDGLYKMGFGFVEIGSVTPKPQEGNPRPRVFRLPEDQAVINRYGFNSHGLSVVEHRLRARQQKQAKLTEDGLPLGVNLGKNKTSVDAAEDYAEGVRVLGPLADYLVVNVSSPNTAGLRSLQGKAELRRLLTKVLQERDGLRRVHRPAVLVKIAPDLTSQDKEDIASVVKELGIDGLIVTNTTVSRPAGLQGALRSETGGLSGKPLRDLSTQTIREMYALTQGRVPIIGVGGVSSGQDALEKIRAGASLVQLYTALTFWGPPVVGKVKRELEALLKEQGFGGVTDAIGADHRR
Sequence of pfDHODH (Q08210 159-565 limits assumed): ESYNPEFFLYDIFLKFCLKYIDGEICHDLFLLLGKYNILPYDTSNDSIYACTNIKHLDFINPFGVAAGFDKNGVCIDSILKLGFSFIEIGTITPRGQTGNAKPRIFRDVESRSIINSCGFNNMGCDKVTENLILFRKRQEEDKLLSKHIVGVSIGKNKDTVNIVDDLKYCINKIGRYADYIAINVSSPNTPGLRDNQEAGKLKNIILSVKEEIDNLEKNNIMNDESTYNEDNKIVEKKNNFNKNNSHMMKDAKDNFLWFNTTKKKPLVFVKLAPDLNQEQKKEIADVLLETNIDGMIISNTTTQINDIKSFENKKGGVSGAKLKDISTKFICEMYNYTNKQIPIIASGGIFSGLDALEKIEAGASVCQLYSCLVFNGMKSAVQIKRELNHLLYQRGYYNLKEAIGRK

In the case of “5-(1H-indol-1-yl)-N-propylthiophene-2-carboxamide [Compound 7]”, the IC50 at pfDHODH (Table 2b) is 459 nM; on pfDHODH (setting [3]) it was 460 nM; at hsDHODH (setting [4]) it was above 30000 nM; on hsDHODH (setting [5]), above 30000 nM; with P. falciparum Dd2 (setting [6]) it was 230 nM; in the series on P. falciparum 3D7 (setting [6]), 710 nM. Moreover, in “Log D measurement”, the log distribution coefficient (logD) is reported as above 3.5. The EC50 was found to be 1030 nM with P. falciparum Dd2 (Table 2b) and 708 nM with P. falciparum 3D7 (Table 2b).
For the compound `CCCNC(=O)c1ccc(-n2c(C)cc3ccccc32)s1` [Compound 1, 5-(2-methyl-1H-indol-1-yl)-N-propylthiophene-2-carboxamide], the inhibition at 50 µM at pfDHODH (50 μM inhibitor, 200 μM L-DHO, 100 μM CoQD, 60 μM DCIP, read-out: % Inhibition of Product Formation Rate with 50 μM Inhibitor, CoQD) came out at 104%. The IC50 at pfDHODH (DCIP assay, 200 μM L-DHO, 18 μM CoQD, 100 μM DCIP, 20 nM enzyme) was 42 ± 7 nM; at pfDHODH (Table 2b) it was 64 nM; on pfDHODH (setting [3]), 70 nM; on hsDHODH (DCIP assay, 200 μM L-DHO, 18 μM CoQD, 100 μM DCIP, 20 nM enzyme, read-out: hsDHODH IC50), above 30000 nM; on hsDHODH (setting [4]), above 30000 nM; at hsDHODH (setting [5]) it was above 30000 nM. Further, the IC50 in the series with P. falciparum Dd2 (Plasmodium falciparum, DD2, Erythrocyte, [3H]-hypoxanthine uptake by parasite infected erythrocytes) was found to be 290 nM; with P. falciparum Dd2 (setting [8]) it was 250 nM; in the series on P. falciparum 3D7 (Plasmodium falciparum, 3D7, Erythrocyte, [3H]-hypoxanthine uptake by parasite infected erythrocytes), 470 nM; in the series on P. falciparum 3D7 (setting [10]), 390 nM. Also, the log distribution coefficient (logD) in the series “Log D measurement” (octanol/water, read-out: LogD) is above 3.5. In addition, the CC50 at 96 h in series [1] and in series [2] was above 62000 nM in each case. Moreover, the EC50 with P. falciparum Dd2 (setting [7]) is 493 nM; with P. falciparum 3D7 (setting [9]), 386 nM.
For `CCCNC(=O)c1ccc(-n2cnc3ccccc32)s1` [Compound 11, 5-(1H-benzo[d]imidazol-1-yl)-N-propylthiophene-2-carboxamide], the half-maximal inhibitory concentration (IC50) is 703 nM at pfDHODH (Table 2b); 700 nM at pfDHODH (setting [3]); above 30000 nM at hsDHODH (setting [4]); above 30000 nM at hsDHODH (setting [5]); 955 nM with P. falciparum Dd2 (setting [8]); 1250 nM in the series with P. falciparum Dd2 (setting [6]). The IC50 in the series with P. falciparum 3D7 (setting [10]) was 470 nM. Besides, the logD in “Log D measurement” (octanol/water, read-out: LogD) is 3.3. Further, the CC50 at 96 h in series [1] and in series [2] was above 62000 nM in each case. Moreover, the EC50 is 1100 nM in the series on P. falciparum Dd2 (setting [7]) and 472 nM in the series on P. falciparum 3D7 (setting [9]).
`CCCNC(=O)c1ccc(-n2c(C)nc3ccccc32)s1` [Compound 12, 5-(2-methyl-1H-benzo[d]imidazol-1-yl)-N-propylthiophene-2-carboxamide]: the IC50 on pfDHODH (Table 2b) was 172 nM; on pfDHODH (setting [3]), 170 nM; on hsDHODH (setting [4]) it was above 30000 nM; on hsDHODH (setting [5]), above 30000 nM; in the series with P. falciparum 3D7 (setting [10]), 630 nM. In addition, in the series “Log D measurement” (octanol/water, read-out: LogD), the logD came to 3.4. The CC50 at 96 h in series [1] and in series [2] was above 62000 nM in each case. The EC50 in the series on P. falciparum 3D7 (setting [9]) amounted to 628 nM.
